Measured values from ChEMBL document CHEMBL5316357, “Discovery of Linvencorvir (RG7907), a Hepatitis B Virus Core Protein Allosteric Modulator, for the Treatment of Chronic HBV Infection” (J Med Chem, 2023).

Legend:
[1] = Half life in female cynomolgus monkey at 3 mg/kg,po by LC-MS/MS analysis; type: ADME, organism-based, Macaca fascicularis; conditions: in vivo
[2] = Tmax in male cynomolgus monkey at 3 mg/kg,po by LC-MS/MS analysis; type: ADME, organism-based, Macaca fascicularis; conditions: in vivo
[3] = Volume of distribution at steady state in cynomolgus monkey at 2 mg/kg,iv by LC-MS/MS analysis; type: ADME, organism-based, Macaca fascicularis; conditions: in vivo, read-out: Vdss
[4] = Cmax in female Wistar Han rat at 30 mg/kg,po by LC-MS/MS analysis; type: ADME, organism-based; set-up: dose 30 mg/kg, route po; conditions: in vivo
[5] = Oral bioavailability in male cynomolgus monkey at 3 mg/kg by LC-MS/MS analysis; type: ADME, organism-based, Macaca fascicularis; conditions: in vivo
[6] = AUClast in male Wistar Han rat at 3 mg/kg,po by LC-MS/MS analysis; type: ADME, organism-based; set-up: dose 3 mg/kg, route po; conditions: in vivo
[7] = Cmax in female cynomolgus monkey at 30 mg/kg,po by LC-MS/MS analysis; type: ADME, organism-based, Macaca fascicularis; set-up: dose 30 mg/kg, route po; conditions: in vivo
[8] = Tmax in female minipig at 3 mg/kg,po by LC-MS/MS analysis; type: ADME, organism-based, Sus scrofa domesticus; conditions: pig, in vivo
[9] = AUClast in female minipig at 3 mg/kg,po by LC-MS/MS analysis; type: ADME, organism-based, Sus scrofa domesticus; set-up: dose 3 mg/kg, route po; conditions: pig, in vivo
[10] = AUClast in cynomolgus monkey at 2 mg/kg,iv by LC-MS/MS analysis; type: ADME, organism-based, Macaca fascicularis; set-up: dose 2 mg/kg, route iv; conditions: in vivo
[11] = Tmax in female cynomolgus monkey at 3 mg/kg,po by LC-MS/MS analysis; type: ADME, organism-based, Macaca fascicularis; conditions: in vivo
[12] = Oral bioavailability in male cynomolgus monkey at 10 mg/kg by LC-MS/MS analysis; type: ADME, organism-based, Macaca fascicularis; conditions: in vivo
[13] = Oral bioavailability in female cynomolgus monkey at 3 mg/kg by LC-MS/MS analysis; type: ADME, organism-based, Macaca fascicularis; conditions: in vivo
[14] = AUClast in female minipig at 10 mg/kg,po by LC-MS/MS analysis; type: ADME, organism-based, Sus scrofa domesticus; set-up: dose 10 mg/kg, route po; conditions: pig, in vivo
[15] = Half life in male minipig at 30 mg/kg,po by LC-MS/MS analysis; type: ADME, organism-based, Sus scrofa domesticus; conditions: pig, in vivo
[16] = Volume of distribution at steady state in Wistar Han rat at 2 mg/kg,iv by LC-MS/MS analysis; type: ADME, organism-based; conditions: in vivo, read-out: Vdss

half-life [1]: 355 min
Tmax [2]: 15 min
Vd [3]: 0.67 L/kg
Cmax [4]: 3310 ng/mL
bioavailability [5]: 10.3%
AUC(0-t) [6]: 209 ng·h/mL
Cmax [7]: 841 ng/mL
Tmax [8]: 1 h
AUC(0-t) [9]: 201 ng·h/mL
AUC(0-t) [10]: 1490 ng·h/mL
Tmax [11]: 15 min
bioavailability [12]: 15.8%
bioavailability [13]: 14.5%
AUC(0-t) [14]: 768 ng·h/mL
half-life [15]: 458 min
Vd [16]: 1.34 L/kg
SMILES: CCOC(=O)C1=C(CN2CCN3C(=O)N(CC(C)(C)C(=O)O)C[C@@H]3C2)NC(c2nccs2)=N[C@H]1c1cccc(F)c1C [LINVENCORVIR]
